Experimental data published in patent US20110123651A1, “DIETARY SUPPLEMENT DRINK FOR DELIVERY OF RESVERATROL AND OTHER POLYPHENOLS” (priority 2009, published 2011).

Assay: Buccal delivery of resveratrol in humans: free resveratrol in plasma
Type: in vivo
Conditions: human, 1 mg resveratrol in 50 mL solution retained in the mouth for one minute before swallowing, plasma two minutes later, read-out: free resveratrol measured in plasma
Procedure: One efficient way of administering resveratrol in humans may be buccal delivery, that is without immediate swallowing, by direct absorption through the inside of the mouth. As an example, when one mg of resveratrol in 50 mL solution was retained in the mouth for one minute before swallowing, 37 ng/ml of free resveratrol was measured in plasma two minutes later. This level of unchanged resveratrol in blood can only be achieved with 250 mg of resveratrol taken in pill form.

concentration at 2 min: 37 ng/mL
Structure (SMILES): Oc1ccc(C=Cc2cc(O)cc(O)c2)cc1 [resveratrol]
